From patent US9365830B2, “Agents and methods for inhibiting human pluripotent stem cell growth” (VIACYTE, INC., priority 2010, dated 2016)
Entries after “also recorded” stand apart in the source; their conditions may differ.

Legend:
[1] = test system: differentiating Stage 1 cultures (definitive endoderm); test: Secondary screen on differentiating Stage 1 cultures in 6-well trays; format: cell-based, human; details: compounds added to differentiating Stage 1 cultures
Text: The impedance assay on the hESCs using the compounds in Table 4 above gave greater than twenty (20) hits. However, the ideal candidate compound of the present invention should not only be inhibitory or cytotoxic to human pluripotent stem cells, such as hESCs or hIPSCs, but should at the same time have no effect on cell viability of differentiated or differentiating cell populations including Stage 1, 2, 3, 4 and 5 type cells cultures (definitive endoderm, foregut endoderm, posterior foregut, pancreatic endoderm and endocrine cells, respectively). […] Approximately 3×10^4 hES cells were plated per well and grown for 24 hrs in DC-HAIF defined medium (i.e. StemPro® hESC SFM medium (Life Technologies, Carlsbad, Calif.). Stage 1 or definitive endoderm differentiation was then induced by changing the medium and culturing in RPMI, 100 ng/mL Activin A, and 10 ng/mL of FGF2. […] of GSK-3 beta Inhibitor 15 (Calbiochem #361558) as added to the culture for the first 24 hours of differentiation only. 10 μM of each of the candidate compounds were added about 48 hours or 2 days after differentiation was induced (see FIGS. 3 C & D, large arrowhead), and the cells were cultured for an additional 2 days.
Secondary Screen with Selected Compounds. A secondary screen using 9 of the 10 candidate compounds in Table 5 was performed by adding the compounds to differentiating Stage 1 cultures (definitive endoderm) as described above. For the secondary screen, larger standard 6-well trays were used instead of the RT-CEAS 96-well culture plates used in primary screens employing impedance assays. Only 9 of the 10 compounds in Table 5 were tested because the 10th was not available in sufficient quantity at the time the assays were performed. In the larger, 6-well trays, 5 of the 9 compounds listed in Table 5 had no effect on viability of differentiating cells or differentiated definitive endoderm. […] This assay also confirmed that the viability of differentiating cells and differentiated definitive endoderm cells was apparently consistent regardless of the numbers of cells tested, or the size, volume, or source of the culture vessel.

[2] = test system: hESC suspension aggregate cultures, Stages 1-4 (pancreatic endoderm); test: Q-PCR marker gene expression, suspension aggregate cultures differentiated through Stages 1-4; format: cell-based, human; details: for PDX1 and NKX6.1 gene expression: Stages 2, 3 and 4, compared to the Controls
Text: FIGS. 5A-5M. are bar graphs showing the relative gene expression levels of markers expressed in pluripotent cells or in cells of pancreatic lineage: OCT4 (FIG. 5A), MIXL (FIG. 5B), EOMES (FIG. 5C), CXCR4 (FIG. 5D), SOX17 (FIG. 5E), HNF1B (FIG. 5F), HNF4A (FIG. 5G), PDX1 (FIG. 5H), PTF1A (FIG. 5I), NKX2.2. (FIG. 5J), NGN3 (FIG. 5K), NKX6.1 (FIG. 5L) and PAX4 (FIG. 5M) with treatment of candidate selective cytotoxic agents from the LOPAC1280™ sublibrary (Table 4) to suspension aggregate cell cultures at Stages 1-4. Expression levels are normalized to the average expression levels of housekeeping genes. The graphs depict fold regulation compared to hESC sample. Ch.Cl=chelerythrine chloride; Deph.=dephostatin; AG=AG 490; SU=SU6656.
FIGS. 6A-6F are bar graphs showing the relative gene expression levels of markers of non-pancreatic lineage cells: SOX1 (FIG. 6A; e.g., at least observed in extraembryonic and neural cellss), ZIC1 (FIG. 6B; e.g., at least observed in early neural cells), PAX6 (FIG. 6C; e.g., at least observed in neural ectoderm cells), SOX7 (FIG. 6D; e.g., at least observed in extraembryonic cells), AFP (FIG. 6E; e.g., at least observed in liver cell and extraembryonic cells) and CDX2 (FIG. 6F; e.g., at least observed in extraembryonic cells) in compound-treated differentiations.
Effects of Candidate Inhibitor/Cytotoxic Agents in Suspension Aggregate Culture. The ideal inhibitor candidate for cell therapy would be compatible with pancreatic cell lineage viability in a manufacturing scale-up process (e.g. a suspension aggregate culture that could be propagated in a large bioreactor), as well as in small-scale cell culture, such as in 96-well plates or 6-well trays. Thus, an additional screen included conditions similar to those in a commercial-scale process. […] The remaining 4 compounds, chelerythrine chloride (Ch.Cl; Cmpd. No. 25), tyrphostin AG 490 (AG; Cmpd. No. 152), dephostatin (Deph; Cmpd. No. 48), and SU 6656 (SU; Cmpd. No. 126) were screened for selective inhibition of pluripotent stem cell growth in a suspension aggregate type culture, which is amenable to manufacturing scale-up process. Briefly, Human ESCs were aggregated in rotational culture and differentiated through Stages 1-4 to make pancreatic endoderm substantially as described in U.S. patent application Ser. No. 11/838,054, entitled COMPOSITIONS AND METHODS USEFUL FOR CULTURING DIFFERENTIABLE CELLS, filed Aug. 13, 2007; and U.S. patent application Ser. No. 12/264,760, entitled STEM CELL AGGREGATE SUSPENSION COMPOSITIONS AND METHODS OF DIFFERENTIATION THEREOF, filed Nov. 4, 2008, which are herein incorporated by reference in their entirety. RNA samples were collected from control and compound-treated cell cultures at various time points during the differentiation as above, for analysis by Q-PCR. FIGS. 5A-5M show the expression of markers characteristic of pluripotent stem cells or at least one of Stages 1-5. FIGS. 6A-6F show the expression of markers not normally expressed in pluripotent stem cells or Stages 1-5. Each graph includes 5 sections: QPCR samples were normalized to day 0 (hESC), which is the “Control” section farthest left on each graph of FIGS. 5A-5M; the other four sections to the right of the Control section correspond to the four compounds used to treat the cells (chelerythrine chloride (Ch.Cl; Cmpd. No. 25); tyrphostin AG 490 (AG490; Cmpd. No. 152), dephostatin (Deph; Cmpd. No. 48), and SU 6656 (SU6656; Cmpd. No. 126) left to right, respectively).

SMILES | Viability of Definitive Endoderm [1] | differentiation of non-pancreatic lineage cells, or “off-target” cells ([2]; FIGS. 6A-6F) | PDX1 and NKX6.1 gene expression [2] | CDX2 gene expression (non-pancreatic marker) ([2]; FIG. 6F) | AFP gene expression (non-pancreatic marker) ([2]; FIG. 6E)
CN(N=O)c1cc(O)ccc1O [Dephostatin] | capable of growth and proliferation; also recorded: Viable | do not promote | increased |  | 
CN(C)S(=O)(=O)c1ccc2c(c1)/C(=C/c1cc3c([nH]1)CCCC3)C(=O)N2 [SU 6656] | capable of growth and proliferation; also recorded: Viable |  | increased | elevated | 
N#C/C(=C\c1ccc(O)c(O)c1)C(=O)NCc1ccccc1 [Tyrphostin AG 490] | capable of growth and proliferation; also recorded: Viable |  | reduced |  | elevated
